This note sets out measurements from patent US20170107207A1, “AMINOPYRAZOLONE DERIVATIVE” (DAIICHI SANKYO COMPANY, LIMITED, priority 2014, published 2017).

Counter-ions that a name gives are not always drawn.

A word on the GI50: it is the concentration that inhibits growth by half. What is called IC50 is the concentration at which inhibition is half-maximal. The low end stands for higher potency, the high end for lower potency.

Experiment [1] has as its system human lymphoma cell line RAMOS cells. Description: Cell growth inhibition test using RAMOS cell, ATP assay (CellTiter-Glo). The experiment is classed as cell-based. To be noted: Homo sapiens, Ramos, 72 h, cultured 3 days, 50% growth inhibition concentration. The procedure:
A cell growth inhibition test was carried out by treating human lymphoma cell line RAMOS cells with a test compound for a given period and then counting the number of viable cells by MTT assay or CellTiter-Glo Luminescent Cell Viability Assay (manufactured by Promega Corp.; hereinafter, referred to as ATP assay).
RAMOS cells were inoculated at 4000 cells/40 μL/well to a 384-well plate containing the compound prepared in advance at predetermined concentrations. The cells thus inoculated were cultured at 37° C. for 3 days under 5% CO2. In order to measure a cell survival rate, CellTiter-Glo Reagent was added in an amount corresponding to 1/4 of the amount of the culture solution at the day of cell inoculation and at the final culture date and stirred at room temperature for 2 minutes. Then, luminescence intensity was measured using a plate reader. The cell survival rate was calculated according to the expression given below.
The number of viable cells and luminescence intensity have been confirmed to correlate with each other. Therefore, the rate of cell growth was calculated according to the following expression: Rate of cell growth (T/C %) of a test compound-supplemented well=100×[(B−C)/(A−C)] wherein A represents the luminescence intensity (final culture date) of a test compound-free well; B represents the luminescence intensity (final culture date) of a test compound-containing well; and C represents the luminescence intensity (day of cell inoculation) of a well at the start of contact of the cells with the test compound.
T/C % at each concentration of the test compound was determined. The concentration at which the test compound offered 50% growth rate was calculated as a GI50 value from the growth rates at two points interpolating 50% and the concentrations, and is shown in Table 56.

The target of another experiment is T1, TIP48/TIP49 complex (Homo sapiens, UniProt Q9Y230+Q9Y265).
T1 construct: made in house; host or cells: E. coli
T1 sequence (Q9Y230 whole entry): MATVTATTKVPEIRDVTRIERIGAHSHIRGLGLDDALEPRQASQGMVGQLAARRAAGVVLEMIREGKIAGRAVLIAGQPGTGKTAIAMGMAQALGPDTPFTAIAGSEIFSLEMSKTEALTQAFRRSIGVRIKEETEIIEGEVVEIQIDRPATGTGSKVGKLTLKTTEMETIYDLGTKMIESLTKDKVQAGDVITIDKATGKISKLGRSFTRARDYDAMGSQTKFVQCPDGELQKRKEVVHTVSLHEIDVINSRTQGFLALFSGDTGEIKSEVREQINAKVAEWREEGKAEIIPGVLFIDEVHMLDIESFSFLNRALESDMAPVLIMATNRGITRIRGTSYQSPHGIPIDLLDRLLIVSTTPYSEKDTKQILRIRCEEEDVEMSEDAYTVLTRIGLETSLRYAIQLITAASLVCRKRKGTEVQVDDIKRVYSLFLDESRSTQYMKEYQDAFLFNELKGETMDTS
T1 sequence (Q9Y265 whole entry): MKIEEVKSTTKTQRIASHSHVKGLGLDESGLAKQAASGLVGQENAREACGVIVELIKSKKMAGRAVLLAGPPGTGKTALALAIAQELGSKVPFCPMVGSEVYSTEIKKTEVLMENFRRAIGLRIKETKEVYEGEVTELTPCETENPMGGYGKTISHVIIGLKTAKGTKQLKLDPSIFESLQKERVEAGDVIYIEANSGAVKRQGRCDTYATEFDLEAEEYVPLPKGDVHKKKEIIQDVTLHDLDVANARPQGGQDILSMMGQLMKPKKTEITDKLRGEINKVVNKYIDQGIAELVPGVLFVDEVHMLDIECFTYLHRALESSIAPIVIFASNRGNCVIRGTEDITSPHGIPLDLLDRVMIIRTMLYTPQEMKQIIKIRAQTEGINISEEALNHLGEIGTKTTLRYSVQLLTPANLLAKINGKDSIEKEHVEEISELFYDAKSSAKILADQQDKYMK
Description: ATPase assay of TIP48/TIP49 complex (ADP-Glo). The following applies: concentration at which the ATPase activity was inhibited by 50%. Type of experiment: biochemical. The text has this: The ATPase activity of the TIP48/TIP49 complex can be measured by use of an ATPase assay described below in Test Examples 1 and 2. The ATPase activity of the TIP48/TIP49 complex can be measured, as described below in the Test Examples, for example, by using recombinant human TIP48 and TIP49 proteins (hereinafter, referred to as rTIP48 and rTIP49) and ATP in the presence or absence of a test compound and measuring the amount of ADP formed through hydrolysis by the ATPase activity of the TIP48/TIP49 complex, using ADP-Glo. Alternatively, the ATPase activity of the TIP48/TIP49 complex can be measured by a method described in, for example, J. Mol. Biol. 366, 172-179 (2007).
An ATPase assay of a TIP48/TIP49 complex was conducted using rTIP48 and rTIP49. Human TIP48 and TIP49 DNAs were purchased from Open Biosystems. Human TIP48 and TIP49 cDNAs cloned by PCR using the purchased DNAs were each integrated into plasmids for expression in E. coli and expressed in E. coli to obtain rTIP48 and rTIP49.
A test compound was dissolved at 10 mM using DMSO. The solution was diluted to 10 concentrations as 4-fold serial dilutions from 10 mM using DMSO.
A 2×assay buffer (100 mM Tris-HCl, pH 7.5, 100 mM NaCl, 40 mM MgCl2, 2 mM DTT, 20 μM ATP, and 0.2 mg/mL BSA) was dispensed at 24.5 μL/well to a 384-well assay plate.
Test compound solutions were dispensed thereto at 1 μL/well. Subsequently, the solution in each well was mixed using a plate mixer.
rTIP48 and rTIP49 were diluted to a concentration of 50 μg/mL using sterilized water. The diluted solution was dispensed at 24.5 μL/well to the 384-well assay plate. Subsequently, the solution in each well was mixed using a plate mixer (final concentration: 24.5 μg/mL) (concentration of each test compound solution: 200 μM, 50 μM, 12.5 μM, 3.12 μM, 0.78 μM, 0.20 μM, 0.049 μM, 0.012 μM, 0.003 μM, and 0.0007 μM; DMSO concentration: 2%).
After the mixing using the plate mixer, the assay plate was left standing at room temperature for 1.5 hours.
5 μL of the solution in each well was transferred to a white assay plate, and ADP-Glo Reagent from ADP-Glo Kinase Assay (Promega Corp., catalog No. V9101) was dispensed thereto at 5 μL/well. After completion of the reaction, the plate was left standing at room temperature for 40 minutes. Kinase Detection Reagent was further dispensed thereto at 5 μL/well, and the plate was left standing at room temperature for 30 minutes. Then, luminescence intensity was measured using a plate reader.
The ATPase inhibitory activity was calculated according to the expression given below.
The luminescence intensity of a well supplemented with the test compound and the TIP48/TIP49 complex was defined as A. The luminescence intensity of a well supplemented with only the TIP48/TIP49 complex was defined as B. The luminescence intensity of a well supplemented with neither the test compound nor the TIP48/TIP49 complex was defined as C. The ratio between the test compound-supplemented group and the test compound-nonsupplemented group (T/C value) was determined according to the following calculation expression:
The dose-response curve was calculated using GraphPad Prism 4 from the concentration of each of the serially diluted test compounds and the ATPase inhibitory activity (%) at this concentration.
Background: In ADP-Glo the light output rises with the ADP produced.

The compound `CCOc1ccc(Cl)cc1C(=O)NCC(C)(C)CC(=O)Nc1c(C[C@H](C)N(C)C)n(C)n(-c2ccccc2)c1=O` [Example 51, 5-Chloro-N-[4-({5-[(2S)-2-(dimethylamino)propyl]-1-methyl-3-oxo-2-phenyl-2,3-dihydro-1H-pyrazol-4-yl}amino)-2,2-dimethyl-4-oxobutyl]-2-ethoxybenzamide] returned a GI50 in experiment [1] of 140 nM. The compound also had an IC50 against TIP48/TIP49 complex of 71 nM.

On to `CCOc1cc(F)c(Cl)cc1C(=O)NCC(C)(C)CC(=O)Nc1c(C[C@H](C)N(C)C)n(C)n(-c2ccccc2)c1=O` [Example 52, 5-Chloro-N-[4-({5-[(2S)-2-(dimethylamino)propyl]-1-methyl-3-oxo-2-phenyl-2,3-dihydro-1H-pyrazol-4-yl}amino)-2,2-dimethyl-4-oxobutyl]-2-ethoxy-4-fluorobenzamide], for which halving of growth in experiment [1] (GI50) required 120 nM. The compound also displayed an IC50 against TIP48/TIP49 complex of 36 nM.

In experiment [1], `CCOc1ncc(Cl)cc1C(=O)NCC(C)(C)CC(=O)Nc1c(C[C@H](C)N(C)C)n(C)n(-c2ccccc2)c1=O` [Example 53, 5-Chloro-N-[4-({5-[(2S)-2-(dimethylamino)propyl]-1-methyl-3-oxo-2-phenyl-2,3-dihydro-1H-pyrazol-4-yl}amino)-2,2-dimethyl-4-oxobutyl]-2-ethoxypyridine-3-carboxamide] returned a GI50 of 240 nM. Besides, at TIP48/TIP49 complex, the IC50 worked out at 63 nM.

For the compound `Cc1cc2cc(Cl)cc(C(=O)NCC(C)(C)CC(=O)Nc3c(C[C@H](C)N(C)C)n(C)n(-c4ccccc4)c3=O)c2o1` [Example 54, 5-Chloro-N-[4-({5-[(2S)-2-(dimethylamino)propyl]-1-methyl-3-oxo-2-phenyl-2,3-dihydro-1H-pyrazol-4-yl}amino)-2,2-dimethyl-4-oxobutyl]-2-methylbenzofuran-7-carboxamide], in experiment [1], the GI50 amounted to 140 nM. The IC50 against TIP48/TIP49 complex turned out to be 94 nM.

Turning to `CCOc1ccc(Cl)cc1C(=O)NCC(C)(C)CC(=O)Nc1c(CC(C)(C)N)n(C)n(-c2ccccc2)c1=O` [Example 55, N-(4-{[5-(2-Amino-2-methylpropyl)-1-methyl-3-oxo-2-phenyl-2,3-dihydro-1H-pyrazol-4-yl]amino}-2,2-dimethyl-4-oxobutyl)-5-chloro-2-ethoxybenzamide], the GI50 in experiment [1] stood at 170 nM. Besides, at TIP48/TIP49 complex, 43 nM corresponded to half-maximal inhibition (IC50).

Take `CCOc1ccc(Cl)cc1C(=O)NCC(C)(C)CC(=O)Nc1c(CC(C)(C)N(C)C)n(C)n(-c2ccccc2)c1=O` [Example 56, 5-Chloro-N-[4-({5-[2-(dimethylamino)-2-methylpropyl]-1-methyl-3-oxo-2-phenyl-2,3-dihydro-1H-pyrazol-4-yl}amino)-2,2-dimethyl-4-oxobutyl]-2-ethoxybenzamide]: the GI50 in experiment [1] worked out at 120 nM. At TIP48/TIP49 complex, this compound came in with an IC50 of 40 nM.

For the compound `CCOc1ncc(Cl)cc1C(=O)NCC(C)(C)CC(=O)Nc1c(CC(C)(C)N(C)C)n(C)n(-c2ccccc2)c1=O` [Example 57, 5-Chloro-N-[4-({5-[2-(dimethylamino)-2-methylpropyl]-1-methyl-3-oxo-2-phenyl-2,3-dihydro-1H-pyrazol-4-yl}amino)-2,2-dimethyl-4-oxobutyl]-2-ethoxypyridine-3-carboxamide], it took 190 nM to inhibit growth in experiment [1] by half (GI50). For the same compound, on TIP48/TIP49 complex, half-maximal inhibition (IC50) required 70 nM.

The compound `Cc1cc2cc(Cl)cc(C(=O)NCC(C)(C)CC(=O)Nc3c(CC(C)(C)N)n(C)n(-c4ccccc4)c3=O)c2o1` [Example 58, N-(4-{[5-(2-amino-2-methylpropyl)-1-methyl-3-oxo-2-phenyl-2,3-dihyro-1H-pyrazol-4-yl]amino}-2,2-dimethyl-4-oxobutyl)-5-chloro-2-methylbenzofuran-7-carboxamide] showed a GI50 in experiment [1] of 110 nM. Moreover, inhibition against TIP48/TIP49 complex was half-maximal at 58 nM (IC50).

The compound `CCOc1ccc(Cl)cc1C(=O)NCC(C)(C)CC(=O)Nc1c(CC(C)(C)NC)n(C)n(-c2ccccc2)c1=O` [Example 59, 5-Chloro-N-[2,2-dimethyl-4-({1-methyl-5-[2-methyl-2-(methylamino)propyl]-3-oxo-2-phenyl-2,3-dihydro-1H-pyrazol-4-yl}amino)-4-oxobutyl]-2-ethoxybenzamide] had a GI50 in experiment [1] of 150 nM. Also, the IC50 on TIP48/TIP49 complex stood at 34 nM.

In experiment [1], `CCOc1ncc(Br)cc1C(=O)NCC(C)(C)CC(=O)Nc1c(CC(C)(C)NC)n(C)n(-c2ccccc2)c1=O` [Example 60, 5-Bromo-N-[2,2-dimethyl-4-({1-methyl-5-[2-methyl-2-(methylamino)propyl]-3-oxo-2-phenyl-2,3-dihydro-1H-pyrazol-4-yl}amino)-4-oxobutyl]-2-ethoxypyridine-3-carboxamide] showed a GI50 of 370 nM. On TIP48/TIP49 complex, this compound showed an IC50 of 94 nM.

`CNC(C)(C)Cc1c(NC(=O)CC(C)(C)CNC(=O)c2cc(Cl)cc3cc(C)oc23)c(=O)n(-c2ccccc2)n1C` [Example 61, 5-Chloro-N-[2,2-dimethyl-4-({1-methyl-5-[2-methyl-2-(methylamino)propyl]-3-oxo-2-phenyl-2,3-dihydro-1H-pyrazol-4-yl}amino)-4-oxobutyl]-2-methylbenzofuran-7-carboxamide]: in experiment [1], it took 390 nM to inhibit growth by half (GI50). Moreover, on TIP48/TIP49 complex, inhibition was half-maximal at 52 nM (IC50).

Take `CCOc1ccc(Cl)cc1C(=O)NCC(CF)(CF)CC(=O)Nc1c(CCN(C)C)n(C)n(-c2ccccc2)c1=O` [Example 62, 5-Chloro-N-[4-({5-[2-(dimethylamino)ethyl]-1-methyl-3-oxo-2-phenylpyrazolo-4-yl}amino)-2,2-bis(fluoromethyl)-4-oxobutyl]-2-ethoxybenzamide]: growth in experiment [1] was halved (GI50) at 500 nM. Further, the IC50 at TIP48/TIP49 complex worked out at 150 nM.

The compound `CCOc1cc(F)c(Cl)cc1C(=O)NCC(C)(C)CC(=O)Nc1c(CCCN(C)C)n(C)n(-c2ccccc2)c1=O` [Example 64, 5-Chloro-N-[4-({5-[3-(dimethylamino)propyl]-1-methyl-3-oxo-2-phenyl-2,3-dihydro-1H-pyrazol-4-yl}amino)-2,2-dimethyl-4-oxobutyl]-2-ethoxy-4-fluorobenzamide monohydrochloride] had a GI50 in experiment [1] of 190 nM. For the same compound, half-maximal inhibition on TIP48/TIP49 complex (IC50) required 99 nM.

`Cc1cc2cc(Cl)cc(C(=O)NCC(C)(C)CC(=O)Nc3c(CCCN(C)C)n(C)n(-c4ccccc4)c3=O)c2o1` [Example 65, 5-Chloro-N-[4-({5-[3-(dimethylamino)propyl]-1-methyl-3-oxo-2-phenyl-2,3-dihydro-1H-pyrazol-4-yl}amino)-2,2-dimethyl-4-oxobutyl]-2-methylbenzofuran-7-carboxamide] registered a GI50 in experiment [1] of 200 nM. The compound also registered an IC50 against TIP48/TIP49 complex of 44 nM.

In the case of `CCOc1ccc(Cl)cc1C(=O)NCC(C)(C)CC(=O)Nc1c(C(C)CN(C)C)n(C)n(-c2ccccc2)c1=O` (stereo not drawn) [Example 66, 5-Chloro-N-[4-({5-[2-(dimethylamino)-1-methylethyl]-1-methyl-3-oxo-2-phenyl-2,3-dihydro-1H-pyrazol-4-yl}amino)-2,2-dimethyl-4-oxobutyl]-2-ethoxybenzamide], the GI50 in experiment [1] worked out at 160 nM. At TIP48/TIP49 complex, the IC50 was found to be 58 nM.
